The text below walks through data of publication PMC8949771, “Gold(I)-Mediated Rapid Cyclization of Propargylated Peptides via Imine Formation” (Journal of the American Chemical Society, 2022).

Molecules are shown by their SMILES.

This data set is described as follows: Au(I)-mediated imine macrocyclisation: N-terminal amine adds (Markovnikov) to N-propargyl backbone amide alkyne; JohnPhosAu(MeCN)SbF6 2 equiv, Et4NBr 16 equiv; in situ NaBH4 10 equiv reduction 15 min for quantification. To be noted: DMF, 8.0 mM, 37.0 °C.

In the case of `CC(C)C[C@@H]1NC(=O)CNC(C)CN(CC(N)=O)C(=O)CNC(=O)CNC(=O)CNC(=O)[C@H](C)NC(=O)[C@H](CCCNC(=N)N)NC(=O)[C@H](Cc2ccc(O)cc2)NC(=O)[C@H](CC(C)C)NC(=O)[C@H](Cc2ccccc2)NC(=O)CNC(=O)CNC(=O)[C@H](C)NC(=O)[C@H](CCCNC(=N)N)NC(=O)[C@H](Cc2ccc(O)cc2)NC(=O)[C@H](CC(C)C)NC1=O` (some centres unmarked), the ring closure, conversion by HPLC (from C#CCN(CC(N)=O)C(=O)CNC(=O)CNC(=O)CNC(=O)[C@H](C)NC(=O)[C@H](CCCNC(=N)N)NC(=O)[C@H](Cc1ccc(O)cc1)NC(=O)[C@H](CC(C)C)NC(=O)[C@H](Cc1ccccc1)NC(=O)CNC(=O)CNC(=O)[C@H](C)NC(=O)[C@H](CCCNC(=N)N)NC(=O)[C@H](Cc1ccc(O)cc1)NC(=O)[C@H](CC(C)C)NC(=O)[C@H](CC(C)C)NC(=O)CN, 51-membered ring, 1.0 h) turned out to be 94%. Take `CC(C)C[C@@H]1NC(=O)CNC(C)CN(CC(N)=O)C(=O)CNC(=O)CNC(=O)CNC(=O)[C@H](C)NC(=O)[C@H](CCCNC(=N)N)NC(=O)[C@H](Cc2ccc(O)cc2)NC(=O)[C@H](CC(C)C)NC(=O)[C@H](Cc2ccccc2)NC(=O)[C@H](C)NC(=O)[C@H](CCCNC(=N)N)NC(=O)[C@H](Cc2ccc(O)cc2)NC1=O` (some centres unmarked): the ring closure, conversion by HPLC (from C#CCN(CC(N)=O)C(=O)CNC(=O)CNC(=O)CNC(=O)[C@H](C)NC(=O)[C@H](CCCNC(=N)N)NC(=O)[C@H](Cc1ccc(O)cc1)NC(=O)[C@H](CC(C)C)NC(=O)[C@H](Cc1ccccc1)NC(=O)[C@H](C)NC(=O)[C@H](CCCNC(=N)N)NC(=O)[C@H](Cc1ccc(O)cc1)NC(=O)[C@H](CC(C)C)NC(=O)CN, 42-membered ring, 1.0 h) stood at 90%. In the case of `CC(C)C[C@@H]1NC(=O)CNC(=O)[C@H](CCCNC(=N)N)NC(C)CN(CC(N)=O)C(=O)CNC(=O)[C@H](C)NC(=O)[C@H](CCCNC(=N)N)NC(=O)[C@H](Cc2ccc(O)cc2)NC1=O` (stereo partly drawn) [H-Arg-Gly-Leu-Tyr-Arg-Ala-Gly-(N-propargyl)Gly-NH2], the ring closure, conversion by HPLC (from C#CCN(CC(N)=O)C(=O)CNC(=O)[C@H](C)NC(=O)[C@H](CCCNC(=N)N)NC(=O)[C@H](Cc1ccc(O)cc1)NC(=O)[C@H](CC(C)C)NC(=O)CNC(=O)[C@@H](N)CCCNC(=N)N, 24-membered ring, 1.0 h) is 83%.

Regarding `CC(C)C[C@@H]1NC(=O)CNC(=O)[C@H](CC(N)=O)NC(C)CN(CC(N)=O)C(=O)CNC(=O)[C@H](C)NC(=O)[C@H](CCCNC(=N)N)NC(=O)[C@H](Cc2ccc(O)cc2)NC1=O` (stereo partly drawn) [H-Asn-Gly-Leu-Tyr-Arg-Ala-Gly-(N-propargyl)Gly-NH2], the ring closure, conversion by HPLC (from C#CCN(CC(N)=O)C(=O)CNC(=O)[C@H](C)NC(=O)[C@H](CCCNC(=N)N)NC(=O)[C@H](Cc1ccc(O)cc1)NC(=O)[C@H](CC(C)C)NC(=O)CNC(=O)[C@@H](N)CC(N)=O, 24-membered ring, 1.0 h) was found to be 76%. Turning to `CC(C)C[C@@H]1NC(=O)CNC(=O)[C@H](CC(=O)O)NC(C)CN(CC(N)=O)C(=O)CNC(=O)[C@H](C)NC(=O)[C@H](CCCNC(=N)N)NC(=O)[C@H](Cc2ccc(O)cc2)NC1=O` (stereo partly drawn) [H-Asp-Gly-Leu-Tyr-Arg-Ala-Gly-(N-propargyl)Gly-NH2], for the setting “from C#CCN(CC(N)=O)C(=O)CNC(=O)[C@H](C)NC(=O)[C@H](CCCNC(=N)N)NC(=O)[C@H](Cc1ccc(O)cc1)NC(=O)[C@H](CC(C)C)NC(=O)CNC(=O)[C@@H](N)CC(=O)O, 24-membered ring, 1.0 h”, the ring closure, conversion by HPLC amounted to 76%. In the case of `CC(C)C[C@@H]1NC(=O)CNC(=O)[C@H](CS)NC(C)CN(CC(N)=O)C(=O)CNC(=O)[C@H](C)NC(=O)[C@H](CCCNC(=N)N)NC(=O)[C@H](Cc2ccc(O)cc2)NC1=O` (stereo partly drawn) [H-Cys-Gly-Leu-Tyr-Arg-Ala-Gly-(N-propargyl)Gly-NH2], where the note is “from C#CCN(CC(N)=O)C(=O)CNC(=O)[C@H](C)NC(=O)[C@H](CCCNC(=N)N)NC(=O)[C@H](Cc1ccc(O)cc1)NC(=O)[C@H](CC(C)C)NC(=O)CNC(=O)[C@@H](N)CS, 24-membered ring, 1.0 h”, the ring closure, conversion by HPLC is 76%.

For the compound `CC(C)C[C@@H]1NC(=O)CNC(=O)[C@H](CCC(=O)O)NC(C)CN(CC(N)=O)C(=O)CNC(=O)[C@H](C)NC(=O)[C@H](CCCNC(=N)N)NC(=O)[C@H](Cc2ccc(O)cc2)NC1=O` (stereo partly drawn) [H-Glu-Gly-Leu-Tyr-Arg-Ala-Gly-(N-propargyl)Gly-NH2], under “from C#CCN(CC(N)=O)C(=O)CNC(=O)[C@H](C)NC(=O)[C@H](CCCNC(=N)N)NC(=O)[C@H](Cc1ccc(O)cc1)NC(=O)[C@H](CC(C)C)NC(=O)CNC(=O)[C@@H](N)CCC(=O)O, 24-membered ring, 1.0 h”, the ring closure, conversion by HPLC is 89%.

Consider `CC(C)C[C@@H]1NC(=O)CNC(=O)CNC(=O)CNC(C)CN(CC(N)=O)C(=O)CNC(=O)[C@H](C)NC(=O)[C@H](CCCNC(=N)N)NC(=O)[C@H](Cc2ccc(O)cc2)NC1=O` (stereo partly drawn) [H-Gly-Gly-Gly-Leu-Tyr-Arg-Ala-Gly-(N-propargyl)Gly-NH2], for which the ring closure, conversion by HPLC (from C#CCN(CC(N)=O)C(=O)CNC(=O)[C@H](C)NC(=O)[C@H](CCCNC(=N)N)NC(=O)[C@H](Cc1ccc(O)cc1)NC(=O)[C@H](CC(C)C)NC(=O)CNC(=O)CNC(=O)CN, 27-membered ring, 0.5 h) turned out to be 91%.

Regarding `CC(C)C[C@@H]1NC(=O)CNC(C)CN(CC(N)=O)C(=O)CNC(=O)[C@H](C)NC(=O)[C@H](Cc2ccc(O)cc2)NC1=O` (stereo partly drawn) [H-Gly-Leu-Tyr-Ala-Gly-(N-propargyl)Gly-NH2], the ring closure, conversion by HPLC (from C#CCN(CC(N)=O)C(=O)CNC(=O)[C@H](C)NC(=O)[C@H](Cc1ccc(O)cc1)NC(=O)[C@H](CC(C)C)NC(=O)CN, 18-membered ring, 0.5 h) amounted to 79%. On to `CC(C)C[C@@H]1NC(=O)CNC(C)CN(CC(N)=O)C(=O)CNC(=O)[C@H](C)NC(=O)[C@H](CCCNC(=N)N)NC(=O)[C@H](Cc2ccc(O)cc2)NC1=O` (stereo partly drawn) [H-Gly-Leu-Tyr-Arg-Ala-Gly-(N-propargyl)Gly-NH2], for which, under “from C#CCN(CC(N)=O)C(=O)CNC(=O)[C@H](C)NC(=O)[C@H](CCCNC(=N)N)NC(=O)[C@H](Cc1ccc(O)cc1)NC(=O)[C@H](CC(C)C)NC(=O)CN, 21-membered ring, 0.5 h”, the ring closure, conversion by HPLC is 78%. Take `CC(=O)NCSC[C@@H]1NC(=O)[C@H](Cc2ccc(O)cc2)NC(=O)[C@H](CC(C)C)NC(=O)CNC(C)CN(CC(N)=O)C(=O)CNC(=O)[C@H](C)NC1=O` (stereo partly drawn) [H-Gly-Leu-Tyr-Cys(Acm)-Ala-Gly-(N-propargyl)Gly-NH2]: the ring closure, conversion by HPLC (from C#CCN(CC(N)=O)C(=O)CNC(=O)[C@H](C)NC(=O)[C@H](CSCNC(C)=O)NC(=O)[C@H](Cc1ccc(O)cc1)NC(=O)[C@H](CC(C)C)NC(=O)CN, 21-membered ring, 0.5 h) turned out to be 82%.

For the compound `CC(C)C[C@@H]1NC(=O)CNC(C)CN(CC(N)=O)C(=O)CNC(=O)[C@H](C)NC(=O)[C@H](CS)NC(=O)[C@H](Cc2ccc(O)cc2)NC1=O` (stereo partly drawn) [H-Gly-Leu-Tyr-Cys-Ala-Gly-(N-propargyl)Gly-NH2], under “from C#CCN(CC(N)=O)C(=O)CNC(=O)[C@H](C)NC(=O)[C@H](CS)NC(=O)[C@H](Cc1ccc(O)cc1)NC(=O)[C@H](CC(C)C)NC(=O)CN, 21-membered ring, 0.5 h”, the ring closure, conversion by HPLC turned out to be 75%. Regarding `CC(C)C[C@@H]1NC(=O)CNC(=O)[C@H](Cc2c[nH]cn2)NC(C)CN(CC(N)=O)C(=O)CNC(=O)[C@H](C)NC(=O)[C@H](CCCNC(=N)N)NC(=O)[C@H](Cc2ccc(O)cc2)NC1=O` (stereo partly drawn) [H-His-Gly-Leu-Tyr-Arg-Ala-Gly-(N-propargyl)Gly-NH2], where the note is “from C#CCN(CC(N)=O)C(=O)CNC(=O)[C@H](C)NC(=O)[C@H](CCCNC(=N)N)NC(=O)[C@H](Cc1ccc(O)cc1)NC(=O)[C@H](CC(C)C)NC(=O)CNC(=O)[C@@H](N)Cc1c[nH]cn1, 24-membered ring, 1.0 h”, the ring closure, conversion by HPLC stood at 90%.

As for `CC[C@H](C)[C@@H]1NC(C)CN(CC(N)=O)C(=O)CNC(=O)[C@H](C)NC(=O)[C@H](CCCNC(=N)N)NC(=O)[C@H](Cc2ccc(O)cc2)NC(=O)[C@H](CC(C)C)NC(=O)CNC1=O` (stereo partly drawn) [H-Ile-Gly-Leu-Tyr-Arg-Ala-Gly-(N-propargyl)Gly-NH2], the ring closure, conversion by HPLC (from C#CCN(CC(N)=O)C(=O)CNC(=O)[C@H](C)NC(=O)[C@H](CCCNC(=N)N)NC(=O)[C@H](Cc1ccc(O)cc1)NC(=O)[C@H](CC(C)C)NC(=O)CNC(=O)[C@@H](N)[C@@H](C)CC, 24-membered ring, 1.0 h) was 76%. As to `CC(C)C[C@@H]1NC(=O)CNC(=O)[C@H](Cc2ccccc2)NC(C)CN(CC(N)=O)C(=O)[C@H](C)NC(=O)[C@H](C)NC(=O)[C@H](CCCNC(=N)N)NC(=O)[C@H](Cc2ccc(O)cc2)NC1=O` (stereo partly drawn) [H-Phe-Gly-Leu-Tyr-Arg-Ala-Ala-(N-propargyl)Gly-NH2], the ring closure, conversion by HPLC (from C#CCN(CC(N)=O)C(=O)[C@H](C)NC(=O)[C@H](C)NC(=O)[C@H](CCCNC(=N)N)NC(=O)[C@H](Cc1ccc(O)cc1)NC(=O)[C@H](CC(C)C)NC(=O)CNC(=O)[C@@H](N)Cc1ccccc1, 24-membered ring, 1.0 h) came to 89%.

As for `CC(C)C[C@@H]1NC(=O)CNC(=O)[C@H](Cc2ccccc2)NC(C)CN(CC(N)=O)C(=O)[C@H](CC(=O)O)NC(=O)[C@H](C)NC(=O)[C@H](CCCNC(=N)N)NC(=O)[C@H](Cc2ccc(O)cc2)NC1=O` (stereo partly drawn) [H-Phe-Gly-Leu-Tyr-Arg-Ala-Asp-(N-propargyl)Gly-NH2], the ring closure, conversion by HPLC (from C#CCN(CC(N)=O)C(=O)[C@H](CC(=O)O)NC(=O)[C@H](C)NC(=O)[C@H](CCCNC(=N)N)NC(=O)[C@H](Cc1ccc(O)cc1)NC(=O)[C@H](CC(C)C)NC(=O)CNC(=O)[C@@H](N)Cc1ccccc1, 24-membered ring, 1.0 h) came to 80%. In the case of `CC(C)C[C@@H]1NC(=O)CNC(=O)[C@H](Cc2ccccc2)NC(C)CN([C@@H](C)C(N)=O)C(=O)CNC(=O)[C@H](C)NC(=O)[C@H](CCCNC(=N)N)NC(=O)[C@H](Cc2ccc(O)cc2)NC1=O` (stereo partly drawn) [H-Phe-Gly-Leu-Tyr-Arg-Ala-Gly-(N-propargyl)Ala-NH2], the ring closure, conversion by HPLC (from C#CCN(C(=O)CNC(=O)[C@H](C)NC(=O)[C@H](CCCNC(=N)N)NC(=O)[C@H](Cc1ccc(O)cc1)NC(=O)[C@H](CC(C)C)NC(=O)CNC(=O)[C@@H](N)Cc1ccccc1)[C@@H](C)C(N)=O, 24-membered ring, 1.0 h) is 90%.
